Molecular target: T1, Nicotiana tabacum αDOX (SEQ ID NO: 6), fatty acid alpha-dioxygenase, 082031, N-terminal His-tag variant SEQ ID NO: 259 (Nicotiana tabacum, UniProt A0A1S3ZX38)
T1 construct: made in house; host or cells: Escherichia coli BL21 (DE3), pET30a
T1 sequence (A0A1S3ZX38 1-643): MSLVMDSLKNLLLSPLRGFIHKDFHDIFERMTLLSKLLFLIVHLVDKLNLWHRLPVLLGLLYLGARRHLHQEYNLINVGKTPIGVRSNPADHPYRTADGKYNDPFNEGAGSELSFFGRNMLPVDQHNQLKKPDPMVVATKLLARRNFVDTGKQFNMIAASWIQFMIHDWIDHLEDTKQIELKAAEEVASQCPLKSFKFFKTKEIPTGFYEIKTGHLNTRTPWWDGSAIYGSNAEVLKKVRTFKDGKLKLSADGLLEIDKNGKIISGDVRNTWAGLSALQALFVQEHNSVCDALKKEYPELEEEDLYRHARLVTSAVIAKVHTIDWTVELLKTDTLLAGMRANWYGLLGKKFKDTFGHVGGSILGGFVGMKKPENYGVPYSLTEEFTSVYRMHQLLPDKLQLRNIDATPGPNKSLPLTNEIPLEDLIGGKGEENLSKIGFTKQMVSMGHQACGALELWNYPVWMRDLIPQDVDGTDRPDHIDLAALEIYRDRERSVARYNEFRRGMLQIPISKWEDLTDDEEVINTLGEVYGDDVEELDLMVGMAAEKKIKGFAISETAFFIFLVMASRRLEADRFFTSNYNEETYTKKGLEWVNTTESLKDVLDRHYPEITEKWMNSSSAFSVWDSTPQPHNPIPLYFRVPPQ
Assay: Alpha-dioxygenase activity assay (oxygen consumption, TON)
Type: biochemical
Conditions: fatty acid 100 µM, enzyme 6 ppm, 50 mM HEPES pH 9.0, 37°C; initial rate of oxygen consumption / enzyme concentration
Text: Nicotiana tabacum αDOX (SEQ ID NO: 6) is a fatty acid alpha-dioxygenase that converts fatty acids into the corresponding 2-hydroperoxy fatty acids and is included as an example of the present invention. A codon optimized gene (SEQ ID NO: 258) encoding for an alpha-dioxygenase variant (SEQ ID NO: 259), including an N-terminal amino acid sequence containing a His-tag was designed and synthesized by Genscript. After gene synthesis, the protein was expressed and purified. In brief, the complete synthetic gene sequence was subcloned into a pET30a vector using the NdeI/HindIII cloning sites. For heterologous expression, Escherichia coli BL21 (DE3) cells were transformed with the recombinant plasmid and a single colony was inoculated into LB medium containing kanamycin (50 mg/L). A pre-starter culture was then inoculated into flasks containing Magic Media (Thermo Fisher, Catalog # K6803) supplemented with kanamycin (50 mg/L) and incubated at 16 °C for 72 h. At an OD600nm = 0.5 - 1.0, 5-aminolevulinic acid (final concentration 0.5 mM) was added. Cells were harvested by centrifugation at 5000 rpm and 4°C and the pellet was lysed using a bacterial cell lysis buffer (B-PER - Themo Fisher, Waltham, MA). After centrifugation, the supernatant was collected, and the protein was purified by one-step purification using HisPur™ Ni-NTA Spin Columns (Thermo Scientific, Catalog # 88226) and standard protocols known in the art. The protein was concentrated using a 10 kDa MW cutoff Amicon Ultra centrifugal filter unit (Millipore Sigma, Catalog# UFC901024), followed by desalting using a disposable PD-10 desalting column (GE Healthcare Life Sciences, Catalog# 17085101) and a buffer containing 50 mM Tris-HCl, 500 mM NaCl, and 10% Glycerol at pH 8.0. […]
Reactions with alpha-dioxygenases were performed as follows. […] The reaction was incubated for up to 10 minutes at 37°C with 200 rpm agitation and the conversion was monitored using an oxygen sensor. The TON (in s-1) were calculated as the ratio between the initial rate of oxygen consumption (in µM/s) and the concentration of enzyme (in µM). […]

SMILES: CCCCCCCC/C=C\CCCCCCCC(=O)O [Oleic Acid]
- Oleic Acid, TON: 0.78 s⁻¹

SMILES: CCCCCCCCCCCCCCCC(=O)O [Palmitic Acid]
- Palmitic Acid, TON: 3.07 s⁻¹

SMILES: CCCCCCCCCCCCCCCCCC(=O)O [Stearic Acid]
- Stearic Acid, TON: 2.66 s⁻¹

— EP3981864A1, “DETERGENT COMPOSITION” (priority 2020, dated 2022)
